In the assay the target is 5-hydroxytryptamine receptor 7 (Homo sapiens, UniProt P34969). Nature of the assay: Displacement of [3H]-LSD from 5HT7 receptor (unknown origin) expressed in CHOK1 cells. It counts as cell-based, CHO-K1.
5-hydroxytryptamine receptor 7, sequence (P34969 whole entry): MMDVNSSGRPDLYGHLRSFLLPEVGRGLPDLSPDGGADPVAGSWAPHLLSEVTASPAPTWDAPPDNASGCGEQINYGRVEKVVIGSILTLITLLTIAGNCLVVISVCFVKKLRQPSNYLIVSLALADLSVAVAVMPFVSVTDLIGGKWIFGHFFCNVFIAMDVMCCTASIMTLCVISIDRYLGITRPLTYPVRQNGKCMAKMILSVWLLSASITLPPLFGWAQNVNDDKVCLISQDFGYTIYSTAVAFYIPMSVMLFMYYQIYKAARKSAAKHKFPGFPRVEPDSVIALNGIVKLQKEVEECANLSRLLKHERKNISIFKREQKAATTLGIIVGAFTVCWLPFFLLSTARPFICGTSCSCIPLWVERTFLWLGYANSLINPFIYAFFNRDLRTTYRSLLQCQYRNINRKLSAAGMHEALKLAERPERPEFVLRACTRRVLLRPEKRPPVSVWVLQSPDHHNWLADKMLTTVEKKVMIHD

`COc1ccc(-c2ccccc2CN2CCN(c3ccccc3OC)CC2)cc1` gave a Ki of 0.046 µM.

`COc1ccc(N2CCN(Cc3ccccc3-c3ccccc3)CC2)cc1OC` showed a Ki of 1.85 µM.

In the case of `Cc1ccccc1N1CCN(Cc2ccccc2-c2ccccc2)CC1`, the inhibition constant (Ki) was 1.75 µM.

For the compound `Cc1cccc(N2CCN(Cc3ccccc3-c3ccccc3)CC2)c1`, the affinity corresponds to a Ki of 1.2 µM.

Consider `Cc1ccc(N2CCN(Cc3ccccc3-c3ccccc3)CC2)cc1`, for which the Ki came out at 2.76 µM.

Consider `Cc1cccc(N2CCN(Cc3ccccc3-c3ccccc3)CC2)c1C`, for which the Ki is more than 10 µM.

For the compound `Cc1ccc(N2CCN(Cc3ccccc3-c3ccccc3)CC2)c(C)c1`, the Ki was more than 10 µM.

On to `Cc1ccc(C)c(N2CCN(Cc3ccccc3-c3ccccc3)CC2)c1`, for which the Ki was more than 10 µM.

The compound `Cc1cc(C)cc(N2CCN(Cc3ccccc3-c3ccccc3)CC2)c1` gave a Ki of more than 10 µM.

With `FC(F)(F)c1cccc(N2CCN(Cc3ccccc3-c3ccccc3)CC2)c1`, the Ki worked out at 1.66 µM.

`COc1ccccc1N1CCN(Cc2ccccc2-c2ccccc2F)CC1` showed an inhibition constant (Ki) of 0.658 µM.

On to `COc1ccccc1N1CCN(Cc2ccccc2-c2ccccc2Cl)CC1`, for which the affinity, expressed as Ki, was 0.297 µM. This Ki is about 2.2-fold lower than that of the compound before.

`COc1ccccc1N1CCN(Cc2ccccc2-c2cccc(Cl)c2)CC1` came in with a Ki of 0.219 µM.

In the case of `COc1ccccc1N1CCN(Cc2ccccc2-c2ccc(Cl)cc2)CC1`, the affinity corresponds to a Ki of 0.22 µM.

As for `COc1ccccc1N1CCN(Cc2ccccc2-c2ccccc2C)CC1`, affinity was put at a Ki of 0.311 µM.

In turn, `COc1ccccc1-c1ccccc1CN1CCN(c2ccccc2OC)CC1` displayed a Ki of 0.043 µM.

`COc1cccc(-c2ccccc2CN2CCN(c3ccccc3OC)CC2)c1` registered a Ki of 0.077 µM.

For `Fc1ccccc1N1CCN(Cc2ccccc2-c2ccccc2)CC1`, the inhibition constant Ki was more than 10 µM.

In turn, `Fc1cccc(N2CCN(Cc3ccccc3-c3ccccc3)CC2)c1` gave a Ki of more than 10 µM.

On to `Fc1ccc(N2CCN(Cc3ccccc3-c3ccccc3)CC2)cc1`, for which the Ki is more than 10 µM.

Compound `Clc1ccccc1N1CCN(Cc2ccccc2-c2ccccc2)CC1` returned a Ki of more than 10 µM.

Compound `Clc1ccc(N2CCN(Cc3ccccc3-c3ccccc3)CC2)cc1` yielded a Ki of more than 10 µM.

Regarding `COc1cccc(N2CCN(Cc3ccccc3-c3ccccc3)CC2)c1`, the Ki was more than 10 µM.

In the case of `COc1ccc(N2CCN(Cc3ccccc3-c3ccccc3)CC2)cc1`, the inhibition constant (Ki) was more than 10 µM.

Values taken from ChEMBL document CHEMBL2375224, “Discovery of aryl-biphenyl-2-ylmethylpiperazines as novel scaffolds for 5-HT(7) ligands and role of the aromatic substituents in binding to the target receptor” (Bioorg Med Chem, 2013).
